These results are taken from patent US20220347186A1, “METHODS AND COMPOSITIONS FOR TREATING SICKLE CELL DISEASE AND THALASSEMIA” (THE UNIVERSITY OF CHICAGO, priority 2019, published 2022).

Test [1] deals with HL-60 cells. The test is described as follows: RT-qPCR quantification of hemoglobin gene expression in HL-60 cells. Format: cell-based, human. Particulars: 200 nM. The procedure: (§1) K562, HEL, and HL-60 cells were cultured in RPMI 1640 medium supplemented with 10% FBS. TF-1 cells were cultured in RPMI 1640 medium supplemented with 10% FBS and 4 ng/mL GM-CSF. Before treatment, TF-1 cells were washed 4× with RPMI 1640 without supplements, and cultured in RPMI 1640 medium with 10% FBS but no GM-CSF for 24 hours. 4 ng/mL GM-CSF or 3 units/mL EPO were added at the time of treatment set up. K562, HEL, and HL-60 cells were cultured as normal until treatment set up. JQ1 (Sigma-Aldrich, SML1524), CPI-0610 (Selleck Chemicals, S7853), and PLX51107 (MedChemExpress, HY-111422) were dissolved in DMSO to 10 mM concentration and stored in −80° C. All three inhibitors were applied to cells at 200 nM, with parallel DMSO treatment (0.002%) as control. JQ1 and PLX51107 were added to cell culture at day 0 without additional treatments up to day 5. […]
cDNA libraries for mRNAs were made from 1 μg input RNA using High-Capacity cDNA Reverse Transcription Kit (ThermoFisher, 4368814). Gene expressions were quantified using Power SYBR Green PCR Master Mix (Thermofisher, 4367659). For microRNAs, cDNA libraries were made with Taqman Advanced miRNA cDNA Synthesis Kit (Thermofisher, A28007). miR-15A and miR-16-1 were quantified using the Taqman Advanced miRNA Assays (ThermoFisher, A25576) specific to hsa-miR-15a-5p (assay ID: 477858_mir) and hsa-miR-16-5p (assay ID: 477860_mir).
On the technique in general: Quantitative PCR measures a nucleic acid by following its amplification.

Test [2] has as its system β-globin locus in TF-1 cells. The test is described as follows: 3C-qPCR interaction frequency at the β-globin locus in TF-1 cells. The format is cell-based, human. The procedure:
as §1, with “control.” for “control. JQ1 and PLX51107 were added to cell culture at day 0 without additional treatments up to day 5.”
Methods for chromatin conformation capture (3C) qPCR was adapted from Hagège et al. (42). […] The digestion efficiency, sample purity, and DNA concentration of each sample were assessed by qPCR to exclude low-quality samples prior to the 3C quantification. Calculated quantity of each primer pairs was normalized as number of templates per million B13 control site template. Additionally, because the Gg primer anneals to both HBG1 and HBG2 fragments, while the Ag primer anneals to only HBG2 fragment, the Gg primer signal was subtracted by Ag primer signal to quantify the HBG1 interaction frequency. […]

Test [3] deals with GATA1 in K562 cells. The test is described as follows: Immunoprecipitation and quantification of total and acetyl-GATA1. The format is cell-based. The conditions noted are these: K562 nuclear lysate. The procedure: Nuclear protein was extracted according to previously described protocol (45). 10% of the nuclear protein extraction was saved as input. The remaining nuclear extract was diluted with non-denaturing IP buffer (20 mM Tris-HCl pH 8, 137 mM NaCl, 10% glycerol, 1% Triton X-100, 2 mM EDTA) and pre-cleared with normal rat IgG (Santa Cruz, sc2026) and Dynabeads Protein G (ThermoFisher, 10004D). Pre-cleared solutions were split into two equal portions, and 5 μg of anti-GATA1 antibody (Santa Cruz, sc266) or normal rat IgG were added to either portion and incubated overnight at 4° C. overnight. Antibodies were then pulled-down using Dynabeads Protein G, and washed 1× with the IP buffer and 2× with PBS containing 1% Triton X-100. The beads were boiled in 2× protein loading buffer to dissociate the proteins. Input and IP-ed proteins were ran on SDS-PAGE gels and transferred to PVDF membranes. The input samples were blotted using anti-topoisomerase 1 (Abcam, ab109374) and anti-GATA1 antibodies, and the IP-ed samples were blotted with anti-acetyl-lysine antibody (Abcam, ab21623). Quantification of signal intensity was done by ImageJ, and GATA1 and acetyl-GATA1 signals were normalized to the topoisomerase 1 signals in each sample.

Test [4] relates to TF-1 cells. The test can be described thus: RNA-seq gene expression in TF-1 cells. Format: cell-based, human. The procedure:
K562, HEL, and HL-60 cells were cultured in RPMI 1640 medium supplemented with 10% FBS. TF-1 cells were cultured in RPMI 1640 medium supplemented with 10% FBS and 4 ng/mL GM-CSF. Before treatment, TF-1 cells were washed 4× with RPMI 1640 without supplements, and cultured in RPMI 1640 medium with 10% FBS but no GM-CSF for 24 hours. 4 ng/mL GM-CSF or 3 units/mL EPO were added at the time of treatment set up. K562, HEL, and HL-60 cells were cultured as normal until treatment set up. JQ1 (Sigma-Aldrich, SML1524), CPI-0610 (Selleck Chemicals, S7853), and PLX51107 (MedChemExpress, HY-111422) were dissolved in DMSO to 10 mM concentration and stored in −80° C. All three inhibitors were applied to cells at 200 nM, with parallel DMSO treatment (0.002%) as control. JQ1 and PLX51107 were added to cell culture at day 0 without additional treatments up to day 5. CPI-0610 was reapplied to the cells on a daily basis.
Sample RNA libraries were prepared using the KAPA mRNA HyperPrep Kit (Roche, KK8580) with 1 μg input RNA and submitted for sequencing. Raw reads in fastq format were aligned to the hg19 reference genome using HISAT2(38) with Gencode gene and transcript annotation (GRCh37.p13)(39). Gene expression was quantified and compared by tools in the Cuffliks package (40). GO analysis and term clustering was performed using g:Profiler and Cytoscape following the protocols published by Reimand et al (41).

Entries after “also recorded” stand apart in the source; their conditions may differ.

On to `Cc1sc2c(c1C)C(c1ccc(Cl)cc1)=N[C@@H](CC(=O)OC(C)(C)C)c1nnc(C)n1-2` [JQ1], for which, in test [1], the “HBB, HBG1/2 and HBE1 expression” value was “had no effect”. For the same molecule, the “Interaction with LCR across the entire locus, except at the HBE1 promoter region” value in test [2] (both proliferative and erythropoietic conditions, 72 hours) was “modest decrease”. Also, in test [2] (more prominent in the erythropoietic condition), the “Interaction between 5′BG and upstream fragments” value is listed as “slight decrease”. The GATA1 acetylation result in test [3] (IP, anti-acetyl-lysine) is recorded as “remained unchanged; also recorded: does not affect”. Moreover, the “Total GATA1 level” value in test [3] (normalized to TOP1) is reported as “did not affect”. In addition, in test [4] (TF-1 cells), the GATA1 expression entry is “did not change”, the “HBA1/2 expression (α-globin locus)” value is recorded as “upregulated”, the “HBE1 expression (β-globin locus)” value is reported as “specifically induced” and the HEMGN expression result is on record as “significantly suppresses”. In addition, in test [4] (TF-1 cells, erythropoietic condition), the KLF1 expression entry is reported as “slightly decreased”. In test [4] (TF-1 cells, especially under erythropoietic conditions), the ALAS2 expression entry is listed as “upregulated”. Besides, the KLF1 expression result in test [4] (TF-1 cells, proliferative condition) is on record as “significantly suppressed”. In test [4] (proliferative TF-1 cells), the NR2F2 expression entry was “significantly suppressed”.
